# According to publication PMC10466336, “Chemical Probe for Imaging of Polo-like Kinase 4 and Centrioles” (JACS Au, 2023):
# Assays:
# [1] = test system: HeLa cells expressing Centrin1-GFP; assay: Centriole phenotypic scoring (number of Centrin1-GFP foci); format: cell-based, human
# Text: Having established that SiR595-centrinone (2d) can successfully label overexpressed Plk4, we wanted to investigate whether it also marks endogenous Plk4. […] In contrast, partial Plk4 inhibition leads to increased levels of centriolar Plk4 due to partial interference with protein degradation mediated by autophosphorylation, overall resulting in centriole overamplification.[8] Therefore, both under-duplication and overamplification of centrioles can be used as a proxy for SiR595-centrinone binding to endogenous Plk4. […] We conclude that the failure of SiR595-centrinone (2d) to detect endogenous Plk4 is due to the low binding affinity of the probe in combination with low protein levels. […] In the second step, the Plk4-bound molecule is specifically reacted with an appropriate fluorogenic tetrazine dye.[27]−[33] This strategy was applied previously successfully to label various protein targets in live and fixed cells,[30],[32],[34]−[38] and we reasoned that a smaller and potentially more permeable Cen-TCO (3) derivative would likewise enable more efficient labeling of endogenous Plk4.
# We conjugated trans-cyclooctene to the previously obtained compound (4) to obtain Cen-TCO (3) using the synthetic route outlined in Scheme S2. The resulting Cen-TCO (3) reacted with an appropriate tetrazine, such as SiR650-TetH (4a) (Figure S4A). The reaction was followed by LC-MS, and the data confirmed quantitative conversion of Cen-TCO (3) to the appropriate cycloaddition product Cen-Click-SiR650 (Figure S4A, D). […] To assess the phenotype caused by Cen-TCO (3), we incubated HeLa cells expressing Centrin1-GFP with different concentrations of Cen-TCO (3) for 24 h, followed by scoring of Centrin1-GFP foci numbers (Figure S5B). […] Despite the high unspecific background signal, a clear focus could be detected at centrioles (Figure 4B). […] The fwhm of the circular signal in this case was 368 ± 26 (N = 6) (Figure S7B), which corresponds to the size measured with overexpressed GFP-Plk4(K41M) (see Figure 3D), and approximately that of the torus region surrounding the centriole.[40] […]
# Plk4 kinase domain = biological target: T1, Plk4 kinase domain (Homo sapiens, UniProt O00444); assay: Competition binding assay based on fluorescence polarization (tracer Alexa488-PEG-N-centrinone); details: for Kd: Alexa488-PEG-N-centrinone 1 nM, Plk4-KD 5 nM; for binding affinity lower (KD higher) than that of unmodified centrinone: ratio of Kd to Kd of centrinone
# T1 construct: Plasmids encoding fragments of Plk4 kinase domain (2-275) with 6xHis-tag were cloned in pET system vectors; made in house; host or cells: E. coli BL21 gold (DE3)
# T1 sequence (O00444 2-275): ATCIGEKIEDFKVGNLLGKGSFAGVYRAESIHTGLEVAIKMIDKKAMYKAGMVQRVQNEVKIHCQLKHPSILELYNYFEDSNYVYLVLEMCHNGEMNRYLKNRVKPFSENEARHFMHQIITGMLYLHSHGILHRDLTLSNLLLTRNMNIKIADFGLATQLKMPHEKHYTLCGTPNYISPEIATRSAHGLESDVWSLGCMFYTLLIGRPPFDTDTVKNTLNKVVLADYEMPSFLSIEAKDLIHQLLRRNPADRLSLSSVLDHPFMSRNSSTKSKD
# Text: Moreover, we substituted the basic acetyl-piperazine nitrogen in compounds (1 and 2a) with an acetyl-piperidine, to avoid probe protonation and accumulation in endolysosomal compartments (Figure S1A, B).[23] […] These probes were characterized first in vitro by measuring their fluorogenicity in the presence of the 6xHis-tagged Plk4 kinase domain (KD) (Table 1). […] Next, we measured the binding affinities of the probes to the Plk4 kinase domain via a competition binding assay based on fluorescence polarization. […]
# 1.3.6 Fluorescence Polarization assay & competition assay […]
# plate (Greiner Bio-One). Upon mixture of protein and ligand, the plate was incubated for 30 min at room temperature followed by fluorescence polarization measurements by a plate reader (TECAN Spark® 20M) using 485 nm as excitation wavelength (bandwidth 20 nm) and 535 nm as emission wavelength (bandwidth 25 nm). The obtained fluorescence polarization values from each well were plotted against the concentration of the protein. The apparent Kd values were obtained by fitting the curve to the […]
# FP = FP + FPmax ― FPmin (C + C + K ― (C + C + K )2 ― 4C C ) […]
# protein should be around the Kd of the tracer to ensure that enough free protein that can bind the […]
# competitor, and enough signal change coming from binding and unbinding of the tracer. The solution of the tracer and protein was titrated with increasing amounts of competitors, in our case SiR650- and […]
# The mixture was then incubated for an hour at room temperature and the FP was then measured on a plate reader using the same conditions as mentioned before. From the obtained FP values, we have calculated the amount of free protein in the solution for each concentration of competitor using the equation of the single-site binding isotherm:
# Pfree = Kd_tracer FP ― FP
# Where Pfree is concentration of free protein, Kd tracer represents the previously determined binding affinity
SMILES,"effect on centriole numbers ([1]; 2 μM, 24 h)",Kd (Plk4 kinase domain),binding affinity lower (KD higher) than that of unmodified centrinone (Plk4 kinase domain),"concentration causing the centriole under-duplication phenotype ([1]; 24 h incubation, scoring of Centrin1-GFP foci)",binding affinity higher than that of SiR595-centrinone (2d) (Plk4 kinase domain; ratio of Kd values)
COc1c(Nc2cc(C)[nH]n2)nc(Sc2ccc(S(=O)(=O)Cc3cccc([N+](=O)[O-])c3F)cc2F)nc1N1CCC(CC(=O)NCCNC(=O)c2ccc(C(=O)O)c(C3=C4C=CC(=N)C=C4[Si](C)(C)c4cc(N)ccc43)c2)CC1 [2d],did not affect centriole numbers,0.038 ± 0.005 µM,42 fold,,
COc1c(Nc2cc(C)[nH]n2)nc(Sc2ccc(S(=O)(=O)Cc3cccc([N+](=O)[O-])c3F)cc2F)nc1N1CCC(CC(=O)NCCNC(=O)OC2CC/C=C/CCC2)CC1 (stereo not shown) [compound 3],,0.008 ± 0.001 µM,~9 fold,≥ 500 nM,4 fold
